How the values were obtained:
Pancreatic lipase (PL) = molecular target: T1, Pancreatic lipase (PL) (Sus scrofa, UniProt P00591); test: Inhibition of PL-mediated 4-MUO hydrolysis; assay type: biochemical; conditions: for Inhibition mode PL / Ki / IC50: 4-MUO substrate; for Ki: Lineweaver–Burk second plot; for IC50: mean ± SD (n = 3); for Reversibility of PL inhibition: dose-response curves not affected by pre-incubation times
T1 construct: purchased Sigma Aldrich type II, Lot.SLBN9099V
T1 sequence (P00591 1-450): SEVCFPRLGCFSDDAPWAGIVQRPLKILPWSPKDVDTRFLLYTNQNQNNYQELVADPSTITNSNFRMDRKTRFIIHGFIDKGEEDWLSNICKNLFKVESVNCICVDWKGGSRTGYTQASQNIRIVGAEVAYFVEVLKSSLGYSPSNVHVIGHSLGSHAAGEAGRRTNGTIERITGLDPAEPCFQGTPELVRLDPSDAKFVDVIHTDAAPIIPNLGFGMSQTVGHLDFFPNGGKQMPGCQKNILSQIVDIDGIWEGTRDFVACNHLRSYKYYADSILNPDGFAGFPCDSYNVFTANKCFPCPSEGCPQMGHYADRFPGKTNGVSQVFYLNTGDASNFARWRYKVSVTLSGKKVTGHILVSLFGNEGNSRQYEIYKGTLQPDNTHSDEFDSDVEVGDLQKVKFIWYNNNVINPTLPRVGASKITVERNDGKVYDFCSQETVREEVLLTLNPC
Protocol: In addition, the background fluorescence in the absence of an enzyme source (PL) (add the same amount of citrate-Na2HPO4 buffer) was measured. […] Then start the reaction by adding 2 µL of 4-MUO probe (3 µM, final concentration). The fluorescence signal of 4-MU (hydrolytic metabolite) was detected by multi-mode microplate reader (SpectraMax M4, Molecular Devices, Urstein, Austria) with continuous oscillation for 20 min and recorded and analysed at 60 s intervals. The excitation wavelength and emission wavelength of 4-MU were set at 340 nm and 460 nm, respectively, and the gain value was 500.
(§1) Subsequently, various concentrations of substrates (selected according to Km) and different concentrations of inhibitors were used to determine the corresponding reaction rate, and the second slope graph of the Lineweaver–Burk diagram was used as a function of the inhibitor to calculate the corresponding inhibition constant (Ki) value. All kinetic data were fitted by the following kinetic equations (a–c), for competitive (a), non-competitive (b) and mixed inhibition (c): (a) V=(VmaxS)/[Km(1+I/Ki)+S] (b) V=(VmaxS)/[(Km+S)×(1+I/Ki)] (c) V=(VmaxS)/[(Km+S)×(1+I/αKi)] where V is the hydrolytic velocity of the reaction, Vmax is the maximum velocity. S and I are substrate (4-MUO, NLMe) and inhibitor (compound 39/41) concentrations, respectively. Ki is the inhibition constant of the tested inhibitor against the target PL and hCES1A; Km is the Michaelis constant (the substrate concentration at half of the Vmax).
All measurements were made in triplicate and the data obtained in the experiment were shown as mean ± SD.

3T3-L1 cells = test: Lipid droplet formation in differentiating 3T3-L1 cells (Oil red O staining); assay type: cell-based, mouse; conditions: high concentration (5 µM)
Protocol: The cells were planted in a well plate and cultured for 48 h after the cells were 100% confluent. Mix inhibitors compounds 39 and 41 with solution I (10 µg/mL insulin in DMEM/F: 12 medium, 0.5 mM 3-isobutyl-1-methylxanthine and […]) to different concentrations, Then added to different wells and incubated for 48 h, then the inhibitor was mixed with solution II (5 µg/mL insulin in DMEM/F: 12 medium), then added to the wells of the same concentration and incubated for 48 h. Then, the medium in the well was replaced with DMEM/F:12 medium with different concentrations of inhibitors, and the culture was continued for 48 h.
The lipid droplets of 3T3-L1 cells were stained with Oil Red O stain kit (Beijing solebo Technology Co., Ltd., Beijing, China) after cultured for 48 h. In short, 3T3-L1 cells were washed with PBS 2 times and fixed with ORO fixative for 20–30 min, and then washed again with deionised water for 3 times. Then, 3T3-L1 cells were washed with 60% isopropanol for 5 min, immersed in oil red O solution for 10–20 min, and washed with deionised water for 3–5 times. Mayer's haematoxylin staining solution was added, the nucleus was stained for 1–2 min, then washed for 3–5 times, and Oro buffer solution was added for 1 min. Finally, distilled water was added to cover the cells. The stained lipid droplets were observed under inverted microscope (Lecai DMI8).

hCES1A = molecular target: T2, hCES1A (Homo sapiens, UniProt P23141); test: Inhibition of hCES1A-mediated NLMe hydrolysis in human liver microsomes; assay type: biochemical; conditions: for Inhibition mode hCES1A / Ki / IC50: NLMe substrate, HLM; for Ki: Lineweaver–Burk second plot; for IC50: mean ± SD (n = 3), read-out: IC50 (µM) hCES1A; for Reversibility of hCES1A inhibition: dose-response curves not affected by pre-incubation times
T2 construct: tissue Bioreclamation IVT lot No. X008067; host or cells: pooled human liver microsomes from 50 donors
T2 sequence (P23141 18-567): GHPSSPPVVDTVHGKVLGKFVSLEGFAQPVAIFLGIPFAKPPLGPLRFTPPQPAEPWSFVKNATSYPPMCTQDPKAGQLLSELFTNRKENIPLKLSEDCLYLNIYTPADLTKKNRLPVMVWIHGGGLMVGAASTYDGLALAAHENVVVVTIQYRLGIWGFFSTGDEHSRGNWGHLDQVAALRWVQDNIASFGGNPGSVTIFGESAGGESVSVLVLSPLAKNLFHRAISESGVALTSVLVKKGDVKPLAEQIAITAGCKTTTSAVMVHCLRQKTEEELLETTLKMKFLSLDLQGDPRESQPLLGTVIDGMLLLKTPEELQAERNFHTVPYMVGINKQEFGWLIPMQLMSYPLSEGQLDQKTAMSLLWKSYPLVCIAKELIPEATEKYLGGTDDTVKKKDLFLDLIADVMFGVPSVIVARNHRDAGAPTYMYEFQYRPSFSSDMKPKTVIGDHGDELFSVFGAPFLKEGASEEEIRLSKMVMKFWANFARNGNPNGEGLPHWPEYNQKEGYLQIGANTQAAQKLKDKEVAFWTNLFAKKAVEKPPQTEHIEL
Protocol: N-Alkylated D-luciferin methyl ester (NLMe), a Specific probe for hCES1A[45], was used for assessing the inhibitory effects for triterpenoids, and BNPP was used as a positive inhibitor of hCES1A. […] Then NLMe (2 µL, 0.15 mM) was added to start the reaction. After shaking the reaction in 37 °C incubator for 10 min, 50 µL of reaction solution was removed and mixed with LDR (50 µL) to terminate the reaction. A multi-mode microplate reader was used to detect the luminescence signal of NL (the hydrolysed metabolite of NLMe). The luminescence product of NL was measured at 580 nm (gain: 140). The final volume ratio of DMSO was less than 1% (V/V).
as §1
All measurements were made in triplicate and the data obtained in the experiment were shown as mean ± SD. The IC50 and Ki values of the compounds with strong inhibitory effect were evaluated by nonlinear regression with graphpad prism 7.0 software (GraphPad Software, Inc., La Jolla, CA).

SMILES	Inhibition mode PL (Pancreatic lipase (PL))	Ki (Pancreatic lipase (PL)) [µM]	IC50 (Pancreatic lipase (PL)) [µM]	Reversibility of PL inhibition (Pancreatic lipase (PL))	lipid droplet formation (3T3-L1 cells)	Inhibition mode hCES1A (hCES1A)	Ki (hCES1A) [µM]	IC50 (hCES1A) [µM]	Reversibility of hCES1A inhibition (hCES1A)
CC(=O)OC1CCC2(C)C(CCC3(C)C2CC=C2C4C(C)C(C)CCC4(C(=O)O)CCC23C)C1(C)C (stereo not drawn) [Compound 41]	Mixed	0.58	0.75 ± 0.12	reversible inhibitors	almost no lipid droplets were formed	Competitive	0.019	0.014 ± 0.002	reversible inhibitors
CC1(C)CCC2(C(=O)O)CCC3(C)C(=CCC4C5(C)C=C(O)C(=O)C(C)(C)C5CCC43C)C2C1 (stereo not drawn) [Compound 39]	Mixed	1.45	2.13 ± 0.19	reversible inhibitors	almost no lipid droplets were formed	Competitive	0.043	0.055 ± 0.006	reversible inhibitors

Reference: article PMC8812735, “Discovery of triterpenoids as potent dual inhibitors of pancreatic lipase and human carboxylesterase 1” (Journal of Enzyme Inhibition and Medicinal Chemistry, 2022)
